The source made the active and inactive calls.
Tests used:
cells [1] = assay type: functional, cell-based
[2] = target: T1, Trace amine-associated receptor 1 (Homo sapiens, UniProt Q96RJ0); experiment: Fluorescence-based cell-based high throughput dose response assay to identify agonists of the human trace amine associated receptor 1 (TAAR1).; assay type: functional
T1 sequence (Q96RJ0 whole entry): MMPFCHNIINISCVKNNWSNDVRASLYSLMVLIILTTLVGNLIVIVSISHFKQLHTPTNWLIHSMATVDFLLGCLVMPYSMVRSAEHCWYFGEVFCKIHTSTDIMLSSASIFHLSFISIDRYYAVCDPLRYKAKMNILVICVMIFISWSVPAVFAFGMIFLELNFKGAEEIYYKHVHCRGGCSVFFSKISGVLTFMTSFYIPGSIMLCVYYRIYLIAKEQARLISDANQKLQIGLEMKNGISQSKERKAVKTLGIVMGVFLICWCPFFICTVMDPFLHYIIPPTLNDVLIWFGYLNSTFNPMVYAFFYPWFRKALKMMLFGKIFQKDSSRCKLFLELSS

cells [3] = experiment: cells
[4] = target: T1, Trace amine-associated receptor 1; experiment: Counterscreen for agonists of the human trace amine associated receptor 1 (hTAAR1): Fluorescence-based cell-based high throughput dose response assay to identify hTAAR1 agonist that also desensitize TAAR1 receptor response.; assay type: functional
[5] = cytotoxicity toward NIH3T3 fibroblasts, dose response, counter-screen, cell-based, ATP luminescence, mouse fibroblasts (AID 2010); assay type: functional;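 note: cells exposed to compound for about 90 hours before reading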
[6] = inhibitors of intracellular T. cruzi replication, confirmation, NIH3T3 host cells, beta-gal luminescence (AID 2044); assay type: functional, cell-based;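 note: intracellular parasites grown in NIH/3T3 mouse fibroblasts as host cells; luminescent beta-galactosidase reporter signal from transgenic T. cruzi replicating inside host cells; inhibitors lower the luminescence signal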
cells [7] = assay type: functional, cell-based; remark: listed apart in the source
[8] = target: T2, Tyrosine-protein phosphatase non-receptor type 7 (Homo sapiens, UniProt P35236); experiment: inhibitors of human HePTP phosphatase, […], biochemical, absorbance, leukemia target (AID 521); assay type: functional
T2 sequence (P35236 whole entry): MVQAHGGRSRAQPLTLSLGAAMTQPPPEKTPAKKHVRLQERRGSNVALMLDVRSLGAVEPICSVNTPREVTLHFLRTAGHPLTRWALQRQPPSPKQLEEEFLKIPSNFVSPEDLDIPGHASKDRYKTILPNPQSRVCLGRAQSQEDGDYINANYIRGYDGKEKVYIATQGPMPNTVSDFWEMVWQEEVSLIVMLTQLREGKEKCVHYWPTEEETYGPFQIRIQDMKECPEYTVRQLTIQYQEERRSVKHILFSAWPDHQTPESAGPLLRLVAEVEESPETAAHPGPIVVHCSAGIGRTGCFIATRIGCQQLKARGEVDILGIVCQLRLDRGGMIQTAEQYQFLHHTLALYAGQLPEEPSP

[9] = target: Mitogen-activated protein kinase 10 (Homo sapiens, UniProt P53779); experiment: Dose response biochemical screening assay for inhibitors of c-Jun N-Terminal Kinase 3 (JNK3). [Related pubchem assays: 746 ]
cells [10] = assay type: functional, cell-based; remark: listed apart in the source
cells [11] = assay type: functional, cell-based; remark: listed apart in the source
BJ [12] = experiment: cytotoxicity toward BJ-TERT fibroblasts, dose response, cell-based, RAS-independent, luminescence (AID 1933); assay type: functional; conditions: Homo sapiens
[13] = cytotoxicity toward DRD oncogenic fibroblasts, dose response, cell-based, non-viral oncogenic, luminescence (AID 1934); assay type: functional; conditions: Homo sapiens
Vero [14] = experiment: host cell cytotoxicity of antiviral hits, dose response, cytotoxicity control for West Nile virus antiviral project, secondary assay (AID 1650); assay type: functional; conditions: Chlorocebus sabaeus
BJ [15] = experiment: cells; assay type: functional, cell-based; conditions: Homo sapiens
Vero [16] = experiment: cells; assay type: functional, cell-based; conditions: Chlorocebus sabaeus
Vero [17] = experiment: cells; assay type: functional; conditions: Chlorocebus sabaeus
BJ [18] = experiment: cytotoxicity toward BJ-TERT-LT-ST fibroblasts, dose response, cell-based, RAS-independent, luminescence (AID 1935); assay type: functional; conditions: Homo sapiens;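 note: BJ fibroblasts immortalized with TERT plus LT and ST oncogenes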
Kallikrein-7 = Kallikrein-7 (Homo sapiens, UniProt P49862); experiment: Fluorescence Intensity-based biochemical primary high throughput dose response assay to identify activators of kallikrein-7 (K7) zymogen.
Kallikrein-7, sequence (P49862 whole entry): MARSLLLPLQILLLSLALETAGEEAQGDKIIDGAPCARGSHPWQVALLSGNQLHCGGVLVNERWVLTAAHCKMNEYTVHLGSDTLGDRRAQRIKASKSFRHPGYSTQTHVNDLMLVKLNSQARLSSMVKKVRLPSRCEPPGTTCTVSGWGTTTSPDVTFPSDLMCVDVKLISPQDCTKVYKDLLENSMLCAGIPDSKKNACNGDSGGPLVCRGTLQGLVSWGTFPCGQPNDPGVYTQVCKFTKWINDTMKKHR

[19] = Luminescence Cell-Based Dose Response HTS to Identify Activators of Luciferase Translation or Activity in H4 […] Cells. [Related pubchem assays: 1829 (Project Summary), 1814 (Primary HTS)]; assay type: functional
[20] = Luminescence Cell-Based Dose Response to Identify Activators of 5'UTR Stem-Loop Driven Prion Protein mRNA Translation in H4-C Neuroglioblastoma Cells. [Related pubchem assays: 1829 (Project Summary), 1814 (Primary HTS)]; assay type: functional
[21] = Luminescence Cell-Based Dose Confirmation to Identify Activators of 5'UTR Stem-Loop Driven Alpha-Synuclein mRNA Translation in H4 Neuroglioblastoma Cells. [Related pubchem assays: 1829 (Project Summary), 1814 (Primary HTS)]; assay type: functional
[22] = Luminescence Cell-Based Dose Response to Identify Activators of Luciferase Translation or Activity in H4-C Neuroglioblastoma Cells. [Related pubchem assays: 1829 (Project Summary), 1814 (Primary HTS)]; assay type: functional
[23] = target: Peroxisome proliferator-activated receptor gamma/Nuclear receptor corepressor 2 (Homo sapiens, UniProt P37231+Q9Y618); experiment: Counterscreen for NR2E3 inverse agonists: TR-FRET-based biochemical high throughput dose response assay to identify inverse agonists of the interaction between peroxisome proliferator-activated receptor gamma (PPARg) and nuclear receptor co-repressor 2 (NCOR2).; assay type: functional
Peroxisome proliferator-activated receptor gamma/Nuclear receptor corepressor 2, sequence (P37231 whole entry): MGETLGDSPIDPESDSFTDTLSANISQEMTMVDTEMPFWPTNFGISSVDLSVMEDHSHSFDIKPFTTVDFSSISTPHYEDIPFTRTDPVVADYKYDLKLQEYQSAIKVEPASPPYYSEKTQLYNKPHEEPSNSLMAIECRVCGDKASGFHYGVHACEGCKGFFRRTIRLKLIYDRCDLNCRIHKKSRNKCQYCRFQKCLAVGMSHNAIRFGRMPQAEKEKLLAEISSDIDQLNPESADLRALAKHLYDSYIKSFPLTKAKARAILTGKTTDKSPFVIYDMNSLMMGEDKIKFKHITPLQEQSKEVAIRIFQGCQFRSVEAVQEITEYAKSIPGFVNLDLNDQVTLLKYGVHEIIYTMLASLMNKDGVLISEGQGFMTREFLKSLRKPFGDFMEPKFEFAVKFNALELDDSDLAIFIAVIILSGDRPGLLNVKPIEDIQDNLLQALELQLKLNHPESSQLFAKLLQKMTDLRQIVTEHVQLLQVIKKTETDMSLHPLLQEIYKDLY
Peroxisome proliferator-activated receptor gamma/Nuclear receptor corepressor 2, sequence (Q9Y618 whole entry): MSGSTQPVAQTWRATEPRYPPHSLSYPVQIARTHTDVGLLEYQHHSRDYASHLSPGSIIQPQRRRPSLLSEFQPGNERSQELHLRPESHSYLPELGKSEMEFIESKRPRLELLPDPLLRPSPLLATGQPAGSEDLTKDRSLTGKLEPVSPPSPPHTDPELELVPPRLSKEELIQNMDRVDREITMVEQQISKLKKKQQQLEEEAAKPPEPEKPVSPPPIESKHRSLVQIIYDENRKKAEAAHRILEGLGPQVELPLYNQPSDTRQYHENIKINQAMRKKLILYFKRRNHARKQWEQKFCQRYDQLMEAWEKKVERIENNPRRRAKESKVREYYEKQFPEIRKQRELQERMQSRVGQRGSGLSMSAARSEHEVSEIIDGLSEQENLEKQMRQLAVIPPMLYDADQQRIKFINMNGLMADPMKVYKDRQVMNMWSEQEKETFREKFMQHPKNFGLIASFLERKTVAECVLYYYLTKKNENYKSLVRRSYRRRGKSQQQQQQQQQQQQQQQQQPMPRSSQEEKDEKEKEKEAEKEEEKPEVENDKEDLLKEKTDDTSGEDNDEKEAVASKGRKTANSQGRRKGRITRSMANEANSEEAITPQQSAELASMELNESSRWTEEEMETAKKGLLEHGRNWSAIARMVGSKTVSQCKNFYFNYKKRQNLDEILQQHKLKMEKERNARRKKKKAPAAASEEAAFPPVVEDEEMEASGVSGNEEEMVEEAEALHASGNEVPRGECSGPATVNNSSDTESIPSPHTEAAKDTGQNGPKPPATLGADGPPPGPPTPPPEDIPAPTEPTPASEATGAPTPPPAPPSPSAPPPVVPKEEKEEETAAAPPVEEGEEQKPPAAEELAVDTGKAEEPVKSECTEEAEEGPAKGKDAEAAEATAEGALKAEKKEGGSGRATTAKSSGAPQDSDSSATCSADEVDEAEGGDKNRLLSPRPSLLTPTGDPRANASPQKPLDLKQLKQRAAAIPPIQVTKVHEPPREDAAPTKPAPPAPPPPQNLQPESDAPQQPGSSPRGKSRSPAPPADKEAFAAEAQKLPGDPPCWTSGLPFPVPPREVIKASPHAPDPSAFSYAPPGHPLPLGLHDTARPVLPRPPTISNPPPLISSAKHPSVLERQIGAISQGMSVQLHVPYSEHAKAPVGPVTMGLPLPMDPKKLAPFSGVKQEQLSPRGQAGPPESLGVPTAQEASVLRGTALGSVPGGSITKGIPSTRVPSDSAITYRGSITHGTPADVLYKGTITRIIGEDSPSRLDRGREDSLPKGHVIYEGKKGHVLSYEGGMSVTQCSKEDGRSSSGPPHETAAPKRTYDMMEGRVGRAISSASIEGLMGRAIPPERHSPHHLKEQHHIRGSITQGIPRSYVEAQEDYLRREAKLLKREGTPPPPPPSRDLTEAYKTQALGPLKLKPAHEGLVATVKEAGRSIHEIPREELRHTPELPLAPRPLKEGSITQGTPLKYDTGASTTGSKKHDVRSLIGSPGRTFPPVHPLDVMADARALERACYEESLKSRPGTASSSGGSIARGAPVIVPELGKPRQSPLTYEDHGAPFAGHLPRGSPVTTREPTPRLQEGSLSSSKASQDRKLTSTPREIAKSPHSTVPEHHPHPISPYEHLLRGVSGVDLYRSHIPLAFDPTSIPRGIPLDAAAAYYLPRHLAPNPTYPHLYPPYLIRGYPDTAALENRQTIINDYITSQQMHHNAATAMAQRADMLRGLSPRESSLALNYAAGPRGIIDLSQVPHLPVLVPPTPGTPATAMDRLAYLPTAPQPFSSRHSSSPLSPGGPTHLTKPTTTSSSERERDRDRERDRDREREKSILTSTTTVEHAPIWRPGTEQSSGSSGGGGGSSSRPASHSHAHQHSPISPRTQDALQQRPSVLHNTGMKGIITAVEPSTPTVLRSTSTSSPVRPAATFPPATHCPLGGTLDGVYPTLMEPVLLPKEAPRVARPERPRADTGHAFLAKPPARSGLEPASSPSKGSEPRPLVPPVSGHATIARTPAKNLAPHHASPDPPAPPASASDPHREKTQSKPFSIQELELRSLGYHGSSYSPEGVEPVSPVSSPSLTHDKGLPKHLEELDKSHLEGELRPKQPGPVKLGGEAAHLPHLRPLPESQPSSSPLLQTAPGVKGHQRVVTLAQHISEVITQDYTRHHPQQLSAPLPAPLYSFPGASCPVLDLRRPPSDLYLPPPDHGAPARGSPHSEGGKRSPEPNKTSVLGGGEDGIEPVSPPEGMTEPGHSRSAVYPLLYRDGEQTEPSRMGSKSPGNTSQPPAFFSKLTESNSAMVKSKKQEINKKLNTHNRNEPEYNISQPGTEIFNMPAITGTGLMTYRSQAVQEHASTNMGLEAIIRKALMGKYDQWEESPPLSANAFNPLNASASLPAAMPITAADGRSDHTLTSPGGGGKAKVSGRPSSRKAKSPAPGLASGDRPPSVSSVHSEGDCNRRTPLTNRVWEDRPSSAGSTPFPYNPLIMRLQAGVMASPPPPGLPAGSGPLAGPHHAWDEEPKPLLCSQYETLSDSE

[24] = target: Photoreceptor-specific nuclear receptor (Homo sapiens, UniProt Q9Y5X4); experiment: NR2E3 inverse agonists, dose response, biochemical, TR-FRET (AID 463256); assay type: functional
Protein Tat = Protein Tat (Human immunodeficiency virus type 1 group M subtype B (isolate HXB2)(HIV-1), UniProt P04608); assay type: functional;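 note: tat binding to TAR RNA read out by fluorescence polarization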
Protein Tat, sequence (P04608 whole entry): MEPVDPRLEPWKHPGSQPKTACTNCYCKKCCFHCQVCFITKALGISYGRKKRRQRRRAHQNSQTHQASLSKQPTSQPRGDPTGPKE

[25] = THP-1 cell cytotoxicity, dose response, cytotoxicity control for Vif-APOBEC3G degradation inhibitor project, THP-1 cells (AID 1117359); assay type: functional; conditions: Human immunodeficiency virus 1, THP-1
[26] = target: 72 kDa type IV collagenase (Homo sapiens, UniProt P08253); experiment: Dose Response validation of uHTS RPN11 inhibitor hits using a MMP-2 Fluorescence assay.; assay type: functional
72 kDa type IV collagenase, sequence (P08253 whole entry): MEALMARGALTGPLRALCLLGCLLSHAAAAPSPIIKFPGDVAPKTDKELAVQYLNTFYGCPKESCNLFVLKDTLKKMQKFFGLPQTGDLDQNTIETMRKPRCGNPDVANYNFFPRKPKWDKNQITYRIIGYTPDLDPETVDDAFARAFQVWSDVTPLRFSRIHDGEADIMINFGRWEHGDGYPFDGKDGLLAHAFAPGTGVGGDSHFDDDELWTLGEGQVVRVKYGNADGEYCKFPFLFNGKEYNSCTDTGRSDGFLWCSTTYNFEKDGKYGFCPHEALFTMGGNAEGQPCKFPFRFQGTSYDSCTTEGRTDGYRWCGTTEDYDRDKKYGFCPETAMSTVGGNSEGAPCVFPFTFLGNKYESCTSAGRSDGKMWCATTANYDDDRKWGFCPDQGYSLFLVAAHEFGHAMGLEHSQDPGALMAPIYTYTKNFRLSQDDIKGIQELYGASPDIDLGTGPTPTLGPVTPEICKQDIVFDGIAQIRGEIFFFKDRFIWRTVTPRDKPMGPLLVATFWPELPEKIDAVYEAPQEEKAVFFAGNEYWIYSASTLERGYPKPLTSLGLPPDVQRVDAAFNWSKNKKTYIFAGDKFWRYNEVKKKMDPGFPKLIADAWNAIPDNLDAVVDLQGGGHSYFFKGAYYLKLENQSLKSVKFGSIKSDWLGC

Prothrombin = Prothrombin (Bos taurus, UniProt P00735); experiment: thrombin inhibition, dose response, biochemical, fluorescence polarization, uHTS hits (AID 602369); assay type: functional
[27] = target: 26S proteasome non-ATPase regulatory subunit 14 (Homo sapiens, UniProt O00487); experiment: inhibition of proteasome subunit RPN11 – biochemical, fluorescence polarization, uHTS hits, confirmation (AID 602368); assay type: functional
26S proteasome non-ATPase regulatory subunit 14, sequence (O00487 whole entry): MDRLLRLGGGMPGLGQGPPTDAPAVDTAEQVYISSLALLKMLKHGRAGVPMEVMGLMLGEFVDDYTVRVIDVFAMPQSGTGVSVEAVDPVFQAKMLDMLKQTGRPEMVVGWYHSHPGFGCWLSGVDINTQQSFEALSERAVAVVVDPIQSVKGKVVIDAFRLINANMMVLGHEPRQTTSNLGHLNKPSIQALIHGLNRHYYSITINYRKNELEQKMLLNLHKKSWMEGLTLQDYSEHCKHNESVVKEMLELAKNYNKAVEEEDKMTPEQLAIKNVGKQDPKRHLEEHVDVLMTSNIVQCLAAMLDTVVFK

[28] = HepG2 cell cytotoxicity, dose response, cytotoxicity control, plate reader, cherry-pick, antagonist series (AID 743416); assay type: functional, cell-based
[29] = MC4R antagonists, dose response, counter-screen for LGR2 antagonist project, cell-based, plate reader, cherry pick (AID 743444); assay type: functional;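 note: transfected HEK 293 cells stimulated with alpha-MSH peptide; potency of inhibitors of the alpha-MSH evoked signal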
[30] = A549 cell cytotoxicity, dose response, cytotoxicity control, plate reader, cherry-pick, antagonist series (AID 743412); assay type: functional, cell-based
[31] = HEK293 cell cytotoxicity, dose response, cytotoxicity control, plate reader, cherry-picked samples (AID 743446); assay type: functional, cell-based
[32] = target: T3, Nuclear receptor subfamily 0 group B member 1 (Homo sapiens, UniProt P51843); assay type: functional, cell-based;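 note: HEK293T cells transfected with SF-1 and DAX-1 plus StAR promoter luciferase reporter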
T3 sequence (P51843 whole entry): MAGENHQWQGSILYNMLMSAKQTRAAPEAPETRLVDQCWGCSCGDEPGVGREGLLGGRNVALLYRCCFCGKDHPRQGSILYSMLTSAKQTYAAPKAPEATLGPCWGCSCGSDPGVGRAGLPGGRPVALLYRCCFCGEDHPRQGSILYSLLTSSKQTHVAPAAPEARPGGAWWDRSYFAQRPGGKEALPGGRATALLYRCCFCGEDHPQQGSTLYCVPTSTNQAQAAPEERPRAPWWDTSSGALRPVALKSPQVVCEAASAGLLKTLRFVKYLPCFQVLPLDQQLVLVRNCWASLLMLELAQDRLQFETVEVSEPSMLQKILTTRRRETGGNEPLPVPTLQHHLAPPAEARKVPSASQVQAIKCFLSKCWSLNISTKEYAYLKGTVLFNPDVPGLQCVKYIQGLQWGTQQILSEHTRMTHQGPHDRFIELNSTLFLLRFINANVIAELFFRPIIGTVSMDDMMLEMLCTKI

cells [33] = assay type: functional, cell-based; remark: listed apart in the source
[34] = LGR2 antagonists, dose response, cell-based, HEK293, CRE-luciferase reporter, cherry pick, set 2 (AID 743343); assay type: functional;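 note: transfected cells were stimulated with diluted bursicon conditioned medium after compound addition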
[35] = SNU-C1 cell viability reduction, dose response, CellTiter-Glo luminescence (AID 1117323); assay type: functional, cell-based
[36] = RKO cell viability reduction, dose response, CellTiter-Glo luminescence (AID 1117322); assay type: functional
[37] = Concentration-dependent survival of SW480 colon cancer line, luminescence detection with CellTiter-Glo, half-maximal inhibitory concentration (AID 1117338); assay type: functional
[38] = cytotoxicity toward HCT116 cells – cell-based, CellTiter-Glo luminescence, IC50, dose response (AID 1117332); assay type: functional; conditions: HCT-116
Cytochrome P450 2C9 = Cytochrome P450 2C9 (Homo sapiens, UniProt P11712); conditions: Potency
Cytochrome P450 2C9, sequence (P11712 whole entry): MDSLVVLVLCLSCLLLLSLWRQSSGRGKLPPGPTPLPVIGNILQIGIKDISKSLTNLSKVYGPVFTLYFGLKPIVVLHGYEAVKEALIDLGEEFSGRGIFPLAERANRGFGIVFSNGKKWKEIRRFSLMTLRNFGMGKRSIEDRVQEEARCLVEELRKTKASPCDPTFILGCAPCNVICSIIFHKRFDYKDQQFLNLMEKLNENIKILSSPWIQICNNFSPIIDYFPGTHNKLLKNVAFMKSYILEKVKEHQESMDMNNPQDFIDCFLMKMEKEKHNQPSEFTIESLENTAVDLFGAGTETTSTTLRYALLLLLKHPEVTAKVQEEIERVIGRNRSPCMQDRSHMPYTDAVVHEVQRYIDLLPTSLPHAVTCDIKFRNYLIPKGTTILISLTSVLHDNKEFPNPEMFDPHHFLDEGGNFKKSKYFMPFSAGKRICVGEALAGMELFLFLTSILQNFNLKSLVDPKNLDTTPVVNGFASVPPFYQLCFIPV

[39] = cytotoxicity toward Colo320 cells – cell-based, CellTiter-Glo luminescence, IC50, dose response (AID 1117334); assay type: functional; conditions: COLO 320
[40] = cytotoxicity toward HT-29 cells – cell-based, CellTiter-Glo luminescence, IC50, dose response (AID 1117330); assay type: functional
[41] = CellTiter-Glo luminescent dose response of DLD-1 viability loss (AID 1117352); assay type: functional

SMILES: N=C(N)N/N=C/c1ccccc1
- EC50 (cells [1]): > 29.9 µM (inactive)
- EC50 [2]: > 3.32 µM (active)
- EC50 (cells [3]): 0.112 µM (active)
- IC50 [4]: 1.67 µM (active)
- EC50 [5]: > 60 µM (not active)
- EC50 [6]: < 0.1 µM (active)
- IC50 (cells [7]): > 29.9 µM (inactive)

SMILES: CC1(C)N(O)CC(c2cccs2)=[N+]1[O-]
- IC50 [8]: > 100 µM (not active)

SMILES: c1ccc(-n2ncc3c(NCc4ccco4)ncnc32)cc1
- IC50 [9]: 60.9 µM (not active)
- EC50 (cells [10]): > 350 µM (not active)
- EC50 (cells [11]): > 350 µM (not active)

SMILES: C[C@H]1O[C@@H](OC2CC[C@]3(C=O)[C@H]4CC[C@]5(C)[C@@H](C6=CC(=O)OC6)CC[C@]5(O)[C@@H]4CC[C@]3(O)C2)CC2OC(C)(C)OC21 (stereo partly drawn)
- EC50 (BJ [12]): 1.01 µM (active)
- EC50 [13]: 1.14 µM (active)
- CC50 (Vero [14]): < 0.039 µM (active)
- EC50 (BJ [15]): 1.37 µM (inconclusive)
- IC50 (Vero [16]): < 0.05 µM (active)
- CC50 (Vero [17]): 0.1 µM (active)
- EC50 (BJ [18]): 1.28 µM (inconclusive)

SMILES: N#Cc1ccc2c(c1)nc1ccccn12
- EC50 (Kallikrein-7): > 69.6 µM (inactive)

SMILES: NC(=O)C1=C[C@H](C2CCCCC2)C[C@H](OCc2ccc(CO)cc2)O1
- EC50 [19]: < 0.1 µM (inconclusive)
- EC50 [20]: 0.326 µM (active)
- IC50 (Vero [16]): > 25 µM (active)
- EC50 [21]: 0.558 µM (active)
- EC50 [22]: > 12 µM (not active)

SMILES: COc1ccc(/C=C(/CC(=O)NCc2ccc(Cl)cc2)c2nc3ccccc3s2)cc1
- EC50 (Kallikrein-7): 2.56 µM (active)

SMILES: O=C(CCN1C(=O)/C(=C\c2cccc(Br)c2)SC1=S)N1CCOCC1
- CC50 (Vero [14]): 31.3 µM (active)
- CC50 (Vero [17]): > 25 µM (active)

SMILES: Cc1cccc(OCc2nnc(SCC(=O)NC3CCCC3)n2C)c1
- IC50 [23]: 4.79 µM (active)
- IC50 [24]: 6.66 µM (active)

SMILES: Cc1cc(S(=O)(=O)N(Cc2ccccn2)Cc2ccco2)ccc1-n1cnnn1
- IC50 (Protein Tat): > 100 µM (active)

SMILES: Cc1ccc(CNC(=O)CCC2CCCN(Cc3cc4ccccc4o3)C2)o1 (stereo not drawn)
- CC50 [25]: 33.8 µM (active)
- EC50 (cells [3]): 0.222 µM (active)
- EC50 [5]: > 30 µM (not active)
- EC50 [6]: < 0.1 µM (active)

SMILES: C#CCn1/c(=N/C(=O)c2cccs2)sc2cccc(OC)c21
- IC50 [26]: > 100 µM (inactive)
- IC50 [8]: > 100 µM (not active)
- IC50 (Prothrombin): > 100 µM (inactive)
- IC50 [27]: 24.9 µM (active)

SMILES: c1ccc(Nc2nnc(-c3ccc4c(c3)OCO4)o2)cc1
- AC50 [28]: 12.3 µM (active)
- AC50 [29]: 2.76 µM (active)
- AC50 [30]: 10.8 µM (active)
- AC50 [31]: 6.3 µM (active)
- IC50 [32]: > 0.0926 µM (active)
- IC50 (cells [33]): > 67.5 µM (inactive)
- AC50 [34]: 2.58 µM (active)

SMILES: CCc1cccc2c3c([nH]c12)C(CC)(CC(=O)O)OCC3 (stereo not drawn) [ETODOLAC]
- IC50 [35]: > 20 µM (inactive)
- IC50 [36]: > 20 µM (inactive)
- IC50 [37]: > 20 µM (inactive)
- IC50 [38]: > 20 µM (inactive)
- AC50 (Cytochrome P450 2C9): 39.8 µM (inconclusive)
- IC50 [39]: > 20 µM (inactive)
- IC50 [40]: > 20 µM (inactive)
- IC50 [41]: > 20 µM (inactive)

Reference: ChEMBL document CHEMBL1201862, “PubChem BioAssay data set” (2004)
